Assay results published in ChEMBL document CHEMBL5634140, “Discovery of benzyloxy benzamide derivatives as potent neuroprotective agents against ischemic stroke” (Eur J Med Chem, 2023).
In brackets after ≈: the same amount, converted by molar mass. Activity calls are given as the source filed them. No cut-off for these calls is given here.

How the values were obtained:
[1] = test system: SH-SY5Y; experiment: Neuroprotective activity against glutamate induced human SH-SY5Y cells at 1 uM preincubated for 30 mins followed by glutamate addition and measured after 24 hrs by LDH based assay; type: functional; conditions: time 24.5 hrs
[2] = test system: SH-SY5Y; experiment: Cytotoxicity against human SH-SY5Y cells at 25 uM incubated for 72 hrs by CCK8 assay; type: toxicity, cell-based
[3] = test system: SH-SY5Y; experiment: Neuroprotective activity against glutamate induced human SH-SY5Y cells at 0.1 uM preincubated for 30 mins followed by glutamate addition and measured after 24 hrs by LDH based assay; type: functional; conditions: time 24.5 hrs
[4] = test system: SH-SY5Y; experiment: Neuroprotective activity against glutamate induced human SH-SY5Y cells at 10 uM preincubated for 30 mins followed by glutamate addition and measured after 24 hrs by LDH based assay; type: functional; conditions: time 24.5 hrs
[5] = Mean residence time in Sprague-Dawley rat at 10 mg/kg, po measured upto 24 hrs by LC-MS/MS analysis; type: ADME, organism-based; conditions: in vivo
[6] = Mean residence time in Sprague-Dawley rat at 5 mg/kg, iv measured upto 24 hrs by LC-MS/MS analysis; type: ADME, organism-based; conditions: in vivo
[7] = test system: Cortical neurone; experiment: Neuroprotective activity against glutamate induced Sprague-Dawley rat primary cortical neuron at 0.1 to 10 uM preincubated for 30 mins followed by glutamate/glycine addition for 30 mins and measured after 24 hrs by LDH based assay; type: functional, cell-based; conditions: dose 0.1-10 µM, time 25.0 hrs
[8] = AUC(0 to t) in Sprague-Dawley rat at 10 mg/kg, po measured upto 24 hrs by LC-MS/MS analysis; type: ADME, organism-based; conditions: in vivo
[9] = Apparent volume of distribution in Sprague-Dawley rat at 5 mg/kg, iv measured upto 24 hrs by LC-MS/MS analysis; type: ADME, organism-based; conditions: in vivo, read-out: Vz
[10] = AUC(0 to infinity) in Sprague-Dawley rat at 5 mg/kg, iv measured upto 24 hrs by LC-MS/MS analysis; type: ADME, organism-based; conditions: in vivo
[11] = Tmax in Sprague-Dawley rat at 10 mg/kg, po measured upto 24 hrs by LC-MS/MS analysis; type: ADME, organism-based; conditions: in vivo
[12] = Oral bioavailability in Sprague-Dawley rat at 10 mg/kg measured upto 24 hrs by LC-MS/MS analysis; type: ADME, organism-based; conditions: in vivo
[13] = Half life in Sprague-Dawley rat at 5 mg/kg, iv measured upto 24 hrs by LC-MS/MS analysis; type: ADME, organism-based; conditions: in vivo
[14] = AUC(0 to infinity) in Sprague-Dawley rat at 10 mg/kg, po measured upto 24 hrs by LC-MS/MS analysis; type: ADME, organism-based; conditions: in vivo
[15] = Cmax in Sprague-Dawley rat at 10 mg/kg, po measured upto 24 hrs by LC-MS/MS analysis; type: ADME, organism-based; conditions: in vivo
[16] = Half life in Sprague-Dawley rat at 10 mg/kg, po measured upto 24 hrs by LC-MS/MS analysis; type: ADME, organism-based; conditions: in vivo
[17] = Cmax in Sprague-Dawley rat at 5 mg/kg, iv measured upto 24 hrs by LC-MS/MS analysis; type: ADME, organism-based; conditions: in vivo
[18] = AUC(0 to t) in Sprague-Dawley rat at 5 mg/kg, iv measured upto 24 hrs by LC-MS/MS analysis; type: ADME, organism-based; conditions: in vivo
[19] = Ratio of drug concentration in Sprague-Dawley rat brain to plasma at 10 mg/kg, iv measured after 0.25 hrs by LC-MS/MS analysis; type: ADME, organism-based
[20] = Drug concentration in Sprague-Dawley rat plasma at 10 mg/kg, iv after 0.25 hrs by LC-MS/MS analysis; type: ADME, organism-based
[21] = AUC(0 to infinity) in Sprague-Dawley rat at 2 mg/kg, iv measured upto 24 hrs by LC-MS/MS analysis; type: ADME, organism-based; conditions: in vivo
[22] = Half life in Sprague-Dawley rat at 2 mg/kg, iv measured upto 24 hrs by LC-MS/MS analysis; type: ADME, organism-based; conditions: in vivo
[23] = Ratio of drug concentration in Sprague-Dawley rat brain to plasma at 10 mg/kg, iv measured after 0.5 hrs by LC-MS/MS analysis; type: ADME, organism-based
[24] = Solubility of the compound at pH 7.4; type: physicochemical; conditions: buffer
[25] = Apparent clearance in Sprague-Dawley rat at 2 mg/kg, iv measured upto 24 hrs by LC-MS/MS analysis; type: ADME, organism-based; conditions: in vivo, read-out: CL(app)
[26] = Cmax in Sprague-Dawley rat at 2 mg/kg, iv measured upto 24 hrs by LC-MS/MS analysis; type: ADME, organism-based; conditions: in vivo
[27] = Drug concentration in Sprague-Dawley rat plasma at 10 mg/kg, iv after 0.5 hrs by LC-MS/MS analysis; type: ADME, organism-based
[28] = AUC(0 to t) in Sprague-Dawley rat at 2 mg/kg, iv measured upto 24 hrs by LC-MS/MS analysis; type: ADME, organism-based; conditions: in vivo
[29] = test system: Neuron; experiment: Neuroprotective activity against glutamate-induced excitotoxicity in rat primary neurons at 0.1 uM; type: functional, cell-based
[30] = test system: Rattus norvegicus; experiment: Neuroprotective activity against MCAO-reperfusion induced Sprague-Dawley rat assessed as reduction in neurological deficit score at 10 mg/kg, ip by TTC staining based analysis (reference value: 2.93 +/- 0.12); type: functional
[31] = test system: Neuron; experiment: Inhibition of PSD95 to nNOS protein-protein interaction in glutamate induced rat neurons at 2 to 20 uM by co-immunoprecipitation method; type: cell-based; conditions: dose 2-20 µM
[32] = Drug concentration in Sprague-Dawley rat brain at 10 mg/kg, iv after 0.5 hrs by LC-MS/MS analysis; type: ADME, organism-based; conditions: read-out: Ct
[33] = Apparent volume of distribution in Sprague-Dawley rat at 2 mg/kg, iv measured upto 24 hrs by LC-MS/MS analysis; type: ADME, organism-based; conditions: in vivo, read-out: Vz
[34] = test system: Rattus norvegicus; experiment: Neuroprotective activity against MCAO-reperfusion induced Sprague-Dawley rat assessed as reduction in infarct volume at 10 mg/kg, ip by TTC staining based analysis (reference value: 40.02 +/- 2.61 %); type: functional; set-up: scale not given: the % may be the effect or the level left
[35] = Drug concentration in Sprague-Dawley rat plasma at 10 mg/kg, iv after 1 hr by LC-MS/MS analysis; type: ADME, organism-based
[36] = Drug concentration in Sprague-Dawley rat brain at 10 mg/kg, iv after 1 hr by LC-MS/MS analysis; type: ADME, organism-based; conditions: read-out: Ct
[37] = Ratio of drug concentration in Sprague-Dawley rat brain to plasma at 10 mg/kg, iv measured after 1 hr by LC-MS/MS analysis; type: ADME, organism-based
[38] = Mean residence time in Sprague-Dawley rat at 2 mg/kg, iv measured upto 24 hrs by LC-MS/MS analysis; type: ADME, organism-based; conditions: in vivo
[39] = Drug concentration in Sprague-Dawley rat brain at 10 mg/kg, iv after 0.25 hrs by LC-MS/MS analysis; type: ADME, organism-based; conditions: read-out: Ct
[40] = test system: Rattus norvegicus; experiment: Neuroprotective activity against MCAO-reperfusion induced Sprague-Dawley rat assessed as reduction in infarct volume at 6 mg/kg, ip by TTC staining based analysis (reference value: 40.02 +/- 2.61 %); type: functional; set-up: scale not given: the % may be the effect or the level left

## Nc1cc(Cl)cc(Cl)c1OCc1ccc(NS(=O)(=O)C(F)(F)F)cc1
[1]
  Activity: 36.13%
[2]
  Activity: 2.21%
[3]
  Activity: 10.69%
[4]
  Activity: 60.31%

## NNC(=O)c1ccc(COc2c(N)cc(Cl)cc2Cl)cc1
[1]
  Activity: 6.15%
[2]
  Activity: 0.59%
[3]
  Activity: 5.89%
[4]
  Activity: 22.56%

## Nc1cc(Cl)cc(Cl)c1OCc1ccc(C(=O)NCCO)cc1
[1]
  Activity: 26.31%
[2]
  Activity: 1.21%
[3]
  Activity: 4%
[4]
  Activity: 41.58%

## Nc1cc(Cl)cc(Cl)c1OCc1ccc(C(=O)NCCS)cc1
[1]
  Activity: 35.12%
[2]
  Activity: 5.23%
[3]
  Activity: 9.67%
[4]
  Activity: 61.07%

## NCCCNC(=O)c1ccc(COc2c(N)cc(Cl)cc2Cl)cc1
[1]
  Activity: 39.65%
[5]
  MRT: 3.26 h
[6]
  MRT: 1.46 h
[2]
  Activity: 1.77%
[7]
  Activity: Active
[8]
  AUC(0-t) at 24 h: 309 ng·h/mL
[9]
  Vd: 24.7 L/kg
[10]
  AUC: 317.96 ng·h/mL
[3]
  Activity: 21.18%
[11]
  Tmax: 1.5 h
[12]; po, 10 mg/kg, 24 h
  F: 21.79%
[13]
  half-life: 2.67 h
[14]; po, 10 mg/kg, 24 h
  AUC: 365.22 ng·h/mL
[15]
  Cmax: 69.3 ng/mL
[16]
  half-life: 1.96 h
[17]
  Cmax: 471 ng/mL
[18]
  AUC(0-t) at 24 h: 296 ng·h/mL
[4]
  Activity: 61.33%

## Nc1cc(Cl)cc(Cl)c1OCc1ccc(C(=O)N[C@H]2CCCC[C@@H]2N)cc1
[1]
  Activity: 39.66%
[2]
  Activity: 2.42%
[3]
  Activity: 10.1%
[4]
  Activity: 65.52%

## NCC(=O)Nc1cc(Cl)cc(Cl)c1OCc1ccc(C(=O)Nc2ccccc2N)cc1
[5]
  MRT: 3.26 h
[19]
  Kp at 0.25 h: 0.0056
[20]
  concentration at 0.25 h: 1890 ng/mL
[21]
  AUC(0-inf): 1280 ng·h/mL
[22]
  half-life: 4.08 h
[23]
  Kp at 0.5 h: 0.0082
[8]
  AUC(0-t) at 24 h: 1240 ng·h/mL
[24]
  solubility: 23 µg/mL (≈ 50.1 µM)
[25]
  clearance: 26.4 mL/min/kg
[26]
  Cmax: 2510 ng/mL
[27]
  concentration at 0.5 h: 935 ng/mL
[28]
  AUC(0-t) at 24 h: 1270 ng·h/mL
[11]
  Tmax: 0.83 h
[12]; Sprague-Dawley
  bioavailability: 19.6%
[29]
  Activity: Active
[14]; Sprague-Dawley
  AUC(0-inf): 1260 ng·h/mL
[30]
  Activity: 2.27
[31]
  inhibition: Active
[32]
  concentration at 0.5 h: 7.64 ng/g
[33]
  Vd: 8.81 L/kg
[15]
  Cmax: 233 ng/mL
[34]
  Activity: 28.31%
[35]
  concentration at 1 h: 329 ng/mL
[16]
  half-life: 4.26 h
[36]
  concentration at 1 h: 10 ng/g
[37]
  Kp at 1 h: 0.0305
[38]
  MRT: 1.46 h
[39]
  concentration at 0.25 h: 10.6 ng/g

## CN(C)CCNC(=O)c1ccc(COc2c(N)cc(Cl)cc2Cl)cc1
[1]
  Activity: 15.63%
[2]
  Activity: 1.52%
[3]
  Activity: 2.56%
[4]
  Activity: 32.3%

## CN(CCN)C(=O)c1ccc(COc2c(N)cc(Cl)cc2Cl)cc1
[1]
  Activity: 32.51%
[2]
  Activity: 2.21%
[3]
  Activity: 11.33%
[4]
  Activity: 44.82%

## Nc1cc(Cl)cc(Cl)c1OCc1ccc(S(N)(=O)=O)cc1
[1]
  Activity: 15.52%
[2]
  Activity: 6.21%
[3]
  Activity: <0%
[4]
  Activity: 33.84%

## CC1=NN(c2ccccc2)C(=O)C1 [EDARAVONE]
[40]
  Activity: 27.06%

## CS(=O)(=O)Nc1ccc(COc2c(N)cc(Cl)cc2Cl)cc1
[1]
  Activity: 45.26%
[2]
  Activity: 3.57%
[3]
  Activity: 15.4%
[4]
  Activity: 69.19%

## C[C@@H](N)CNC(=O)c1ccc(COc2c(N)cc(Cl)cc2Cl)cc1
[1]
  Activity: 41.38%
[2]
  Activity: 3.13%
[3]
  Activity: 13.55%
[4]
  Activity: 63.79%

## Nc1cc(Cl)cc(Cl)c1OCc1ccc(C(=O)N[C@@H]2CCCC[C@H]2N)cc1
[1]
  Activity: 41.87%
[2]
  Activity: 2.51%
[3]
  Activity: 12.32%
[4]
  Activity: 63.06%

## Nc1cc(Cl)cc(Cl)c1OCc1ccc(NS(=O)(=O)c2ccccc2)cc1
[1]
  Activity: 38.63%
[2]
  Activity: 1.96%
[3]
  Activity: 15.64%
[4]
  Activity: 64.69%

## Nc1ccccc1NC(=O)c1ccc(COc2c(N)cc(Cl)cc2Cl)cc1
[1]
  Activity: 41.87%
[2]
  Activity: 0.24%
[3]
  Activity: 14.78%
[4]
  Activity: 63.3%

## COCCNC(=O)c1ccc(COc2c(N)cc(Cl)cc2Cl)cc1
[1]
  Activity: 40.46%
[2]
  Activity: 1.33%
[3]
  Activity: 11.71%
[4]
  Activity: 65.14%

## Nc1cc(Cl)cc(Cl)c1OCc1ccc(C(=O)NCC(=O)O)cc1
[1]
  Activity: 47.04%
[2]
  Activity: 5.67%
[3]
  Activity: 18.96%
[4]
  Activity: 66.01%

## NCCNC(=O)c1ccc(COc2c(N)cc(Cl)cc2Cl)cc1
[1]
  Activity: 41.14%
[2]
  Activity: < 0%
[3]
  Activity: 12.87%
[4]
  Activity: 67.8%
